Assay results reported in a compilation of properties of binary mixtures (doi:10.1021/acs.jced.9b00769).

Test: xn = mol fraction of the nth substance listed
Conditions: 100 kPa

OCCN(CCO)CCO + CCCCCCCCCCCC[P+](CC)(CC)CC.N#Cc1ccc[n-]1
x2 = 0
Conditions	viscosity [mPa·s]
293.15 K	940
298.15 K	611
303.15 K	413
313.15 K	204

OCCN(CCO)CCO + CCCC[P+](CC)(CC)CC.N#Cc1ccc[n-]1
x2 = 0
Conditions	viscosity [mPa·s]
293.15 K	940
298.15 K	611
303.15 K	413
313.15 K	204

CCCC[P+](CC)(CC)CC.N#Cc1ccc[n-]1 + OCCN(CCO)CCO
Conditions	electrical conductivity, 293.15 K [S/m]	viscosity, 293.15 K [mPa·s]	viscosity, 298.15 K [mPa·s]	viscosity, 303.15 K [mPa·s]	viscosity, 313.15 K [mPa·s]
x1 = 0.002	0.0007	–	–	–	–
x1 = 0.007	0.0017	–	–	–	–
x1 = 0.009	0.0022	–	–	–	–
x1 = 0.018	0.0036	960	–	410	188
x1 = 0.023	0.0041	–	–	–	–
x1 = 0.029	–	–	633	408	184
x1 = 0.047	0.0055	–	–	–	–
x1 = 0.059	0.0059	1010	660	426	191
x1 = 0.089	0.0068	970	636	410	185
x1 = 0.104	–	940	614	397	177
x1 = 0.123	0.0077	–	–	–	–
x1 = 0.223	–	–	530	–	155
x1 = 0.272	0.0115	–	–	–	–
x1 = 0.413	–	680	439	284	136
x1 = 0.508	–	647	426	–	132
x1 = 0.537	0.0248	–	–	–	–
x1 = 0.763	0.0489	478	318	210	106
x1 = 1	0.147	187	137	104	62

CCCCCCCCCCCC[P+](CC)(CC)CC.N#Cc1ccc[n-]1 + OCCN(CCO)CCO
Conditions	electrical conductivity [S/m]	viscosity [mPa·s]
293.15 K, x1 = 0.003	0.0008	–
293.15 K, x1 = 0.005	0.0012	–
293.15 K, x1 = 0.007	0.0016	–
293.15 K, x1 = 0.008	0.0019	–
293.15 K, x1 = 0.013	0.0027	–
293.15 K, x1 = 0.017	0.0033	920
293.15 K, x1 = 0.02	0.0036	–
293.15 K, x1 = 0.025	0.0038	–
293.15 K, x1 = 0.042	0.0051	–
293.15 K, x1 = 0.051	0.0053	1009
293.15 K, x1 = 0.065	0.0056	–
293.15 K, x1 = 0.08	0.0058	–
293.15 K, x1 = 0.09	0.006	–
293.15 K, x1 = 0.091	–	1032
293.15 K, x1 = 0.116	0.0062	–
293.15 K, x1 = 0.117	–	1007
293.15 K, x1 = 0.145	–	920
293.15 K, x1 = 0.28	–	860
293.15 K, x1 = 0.285	0.0061	–
293.15 K, x1 = 0.404	0.0069	–
293.15 K, x1 = 0.512	0.0081	–
293.15 K, x1 = 0.687	–	840
293.15 K, x1 = 0.701	0.0141	–
293.15 K, x1 = 0.809	–	720
293.15 K, x1 = 1	0.0267	423
298.15 K, x1 = 0.017	–	608
298.15 K, x1 = 0.035	–	641
298.15 K, x1 = 0.091	–	680
298.15 K, x1 = 0.117	–	649
298.15 K, x1 = 0.145	–	610
298.15 K, x1 = 0.28	–	573
298.15 K, x1 = 0.473	–	583
298.15 K, x1 = 0.687	–	576
298.15 K, x1 = 1	–	310
303.15 K, x1 = 0.017	–	396
303.15 K, x1 = 0.051	–	418
303.15 K, x1 = 0.091	–	435
303.15 K, x1 = 0.117	–	423
303.15 K, x1 = 0.145	–	403
303.15 K, x1 = 0.207	–	389
303.15 K, x1 = 0.28	–	379
303.15 K, x1 = 0.473	–	395
303.15 K, x1 = 0.687	–	395
303.15 K, x1 = 0.809	–	353
303.15 K, x1 = 1	–	214
313.15 K, x1 = 0.017	–	181
313.15 K, x1 = 0.035	–	194
313.15 K, x1 = 0.091	–	198
313.15 K, x1 = 0.145	–	192
313.15 K, x1 = 0.28	–	183
313.15 K, x1 = 0.473	–	194
313.15 K, x1 = 0.687	–	199
313.15 K, x1 = 0.809	–	184
313.15 K, x1 = 1	–	114

CCCCCCCCCCCC[P+](CCCC)(CCCC)CCCC.N#Cc1ccc[n-]1 + OCCN(CCO)CCO
Conditions	electrical conductivity [S/m]	viscosity [mPa·s]
293.15 K, x1 = 0.003	0.0006	–
293.15 K, x1 = 0.004	0.0008	–
293.15 K, x1 = 0.005	0.0011	–
293.15 K, x1 = 0.007	0.0014	–
293.15 K, x1 = 0.01	0.0019	–
293.15 K, x1 = 0.017	–	980
293.15 K, x1 = 0.022	0.003	–
293.15 K, x1 = 0.027	0.0032	–
293.15 K, x1 = 0.042	0.0036	–
293.15 K, x1 = 0.054	0.0038	1054
293.15 K, x1 = 0.075	0.0041	–
293.15 K, x1 = 0.177	0.0038	1025
293.15 K, x1 = 0.244	0.0039	970
293.15 K, x1 = 0.325	0.0041	930
293.15 K, x1 = 0.431	0.0043	830
293.15 K, x1 = 0.755	0.0057	680
298.15 K, x1 = 0.017	–	654
298.15 K, x1 = 0.054	–	680
298.15 K, x1 = 0.096	–	690
298.15 K, x1 = 0.121	–	690
298.15 K, x1 = 0.177	–	680
298.15 K, x1 = 0.244	–	646
298.15 K, x1 = 0.431	–	569
298.15 K, x1 = 0.538	–	532
303.15 K, x1 = 0.035	–	435
303.15 K, x1 = 0.096	–	452
303.15 K, x1 = 0.121	–	450
303.15 K, x1 = 0.177	–	450
303.15 K, x1 = 0.244	–	432
303.15 K, x1 = 0.431	–	391
303.15 K, x1 = 0.538	–	370
313.15 K, x1 = 0.017	–	205
313.15 K, x1 = 0.035	–	205
313.15 K, x1 = 0.054	–	208
313.15 K, x1 = 0.121	–	216
313.15 K, x1 = 0.177	–	219
313.15 K, x1 = 0.244	–	211
313.15 K, x1 = 0.431	–	200
313.15 K, x1 = 0.538	–	194
313.15 K, x1 = 0.755	–	182
313.15 K, x1 = 1	–	166
